According to ChEMBL document CHEMBL3351682, “NaSH in the construction of thiophene ring fused with N-heterocycles: a rapid and inexpensive synthesis of novel small molecules as potential inducers of apoptosis” (Bioorg Med Chem Lett, 2014):
Calls of active or inactive are those of the source. No cut-off for these calls is given here.

Tests used:
Danio rerio [1] = species on record: Danio rerio; assay: Induction of apoptosis in zebrafish embryo at 30 uM after 24 to 48 hrs by acridine orange staining based fluorescence microscopy; format: functional, organism-based
Danio rerio [2] = species on record: Danio rerio; assay: Teratogenicity in zebrafish embryo incubated until 5 days post fertilization; format: ADME, organism-based; details: in vivo, 120 h
[3] = Therapeutic index, ratio of NOAEL to apoptotic EC50 in Zebrafish embryo; format: organism-based, Danio rerio; details: in vivo, read-out: TI
Danio rerio [4] = species on record: Danio rerio; assay: Teratogenicity in zebrafish embryo at 1 to 30 uM incubated until 5 days post fertilization; format: ADME, organism-based; details: in vivo, 120 h
Danio rerio [5] = species on record: Danio rerio; assay: Induction of apoptosis in zebrafish embryo after 24 to 48 hrs by acridine orange staining based fluorescence microscopy; format: functional, organism-based
Danio rerio [6] = species on record: Danio rerio; assay: Hepatotoxicity in zebrafish embryo at 1 to 30 uM incubated until 7 days post fertilization; format: organism-based; details: in vivo, 168 h
Danio rerio [7] = species on record: Danio rerio; assay: Hepatotoxicity in zebrafish embryo incubated until 7 days post fertilization; format: organism-based; details: in vivo, 168 h
Danio rerio [8] = species on record: Danio rerio; assay: Induction of apoptosis in zebrafish embryo at 1 to 30 uM after 24 to 48 hrs by acridine orange staining based fluorescence microscopy; format: functional, organism-based
Danio rerio [9] = species on record: Danio rerio; assay: Hepatotoxicity in zebrafish embryo at 10 uM incubated until 7 days post fertilization; format: organism-based; details: in vivo, 168 h
Danio rerio [10] = species on record: Danio rerio; assay: Teratogenicity in zebrafish embryo at 10 uM incubated until 5 days post fertilization; format: ADME, organism-based; details: in vivo, 120 h
Danio rerio [11] = species on record: Danio rerio; assay: Hepatotoxicity in zebrafish embryo assessed as induction of mortality at 30 uM incubated until 7 days post fertilization; format: organism-based; details: in vivo, 168 h
Danio rerio [12] = species on record: Danio rerio; assay: Teratogenicity in zebrafish embryo at 30 uM incubated until 5 days post fertilization; format: ADME, organism-based; details: in vivo, 120 h
Danio rerio [13] = species on record: Danio rerio; assay: Induction of apoptosis in zebrafish embryo at 1 to 3 uM after 24 to 48 hrs by acridine orange staining based fluorescence microscopy; format: functional, organism-based

SMILES	Activity (Danio rerio [1])	NOAEL (Danio rerio [2]) [µM]	selectivity ratio [3]	Activity (Danio rerio [4])	EC50 (Danio rerio [5]) [µM]	Activity (Danio rerio [6])	NOAEL (Danio rerio [7]) [µM]	Activity (Danio rerio [8])	Activity (Danio rerio [9])	Activity (Danio rerio [10])	Activity (Danio rerio [11])	Activity (Danio rerio [12])	Activity (Danio rerio [13])
Fc1cc(F)cc(-c2cc3nc4ccccc4nc3s2)c1	Active	30	2.9	Non-toxic	10.3	Non-toxic	30	–	–	–	–	–	–
CCCc1cc2nc3ccccc3nc2s1	Active	30	6.72	Non-toxic	4.46	Non-toxic	30	Dose-dependent effect	–	–	–	–	–
CC(C)(C)c1cc2nc3ccccc3nc2s1	Active	3	0.2	–	4.89	–	1	Dose-dependent effect	Toxic	Non-toxic	Toxic	Toxic	–
Fc1cc(F)cc(-c2cc3nccnc3s2)c1	Active	30	3.05	Non-toxic	9.82	Non-toxic	30	–	–	–	–	–	–
c1ccc(-c2cc3nc4ccccc4nc3s2)cc1	Active	10	1.17	–	8.5	Non-toxic	10	–	–	–	–	Toxic	Active
